Laboratory results reported in patent publication US20180000085A1, “USE OF PICOLINAMIDE COMPOUNDS WITH FUNGICIDAL ACTIVITY” (DOW AGROSCIENCES LLC, priority 2014, published 2018).

Legend:
[1] = test system: Zymoseptoria tritici; assay: Leaf blotch of wheat (SEPTTR) disease control on wheat seedlings; format: in vivo; set-up: key to SEPTTR 1DP, HV activity at 100 ppm (% control rating) / SEPTTR 3DC, HV activity at 100 ppm (% control rating) / SEPTTR disease control, 1DP / SEPTTR disease control, 3DC / SEPTTR 1DP disease control rating, HV activity / SEPTTR 3DC disease control rating, HV activity / SEPTTR 3DC, LV activity at 125.1 g/H (% Control rating) / SEPTTR 1DP, LV activity at 125.1 g/H (% Control rating) / SEPTTR 1DP disease control rating, LV activity at 125.1 g/H / SEPTTR 3DC disease control rating, LV activity at 125.1 g/H / SEPTTR 3DC disease control rating, HV activity at 100 ppm / SEPTTR 1DP disease control rating, HV activity at 100 ppm / HV activity at 100 ppm SEPTTR 3DC (disease control rating) / HV activity at 100 ppm SEPTTR 1DP (disease control rating) / LV activity at 125.1 g/H SEPTTR 1DP (disease control rating) / LV activity at 125.1 g/H SEPTTR 3DC (disease control rating): A: > 80; B: ≤ 80; C: Not Tested; D: No Activity Observed in the Reported Assay; conditions: for SEPTTR 1DP disease control rating, LV activity at 125.1 g/H / SEPTTR 3DC disease control rating, LV activity at 125.1 g/H / LV activity at 125.1 g/H SEPTTR 1DP (disease control rating) / LV activity at 125.1 g/H SEPTTR 3DC (disease control rating): low volume application; for SEPTTR 1DP disease control rating, LV activity at 125.1 g/H / SEPTTR 1DP disease control rating, HV activity at 100 ppm: 1 day protectant; for SEPTTR 3DC disease control rating, LV activity at 125.1 g/H / SEPTTR 3DC disease control rating, HV activity at 100 ppm: 3 day curative; for LV activity at 125.1 g/H SEPTTR 1DP (disease control rating) / SEPTTR 1DP disease control rating, HV activity: 1 Day Protectant; for LV activity at 125.1 g/H SEPTTR 1DP (disease control rating) / LV activity at 125.1 g/H SEPTTR 3DC (disease control rating) / SEPTTR 1DP disease control rating, HV activity / SEPTTR 3DC disease control rating, HV activity: wheat leaf blotch; for LV activity at 125.1 g/H SEPTTR 3DC (disease control rating) / SEPTTR 3DC disease control rating, HV activity: 3 Day Curative; for SEPTTR 1DP disease control rating, HV activity / SEPTTR 3DC disease control rating, HV activity: HV application at 100 ppm; for SEPTTR 1DP disease control rating, HV activity at 100 ppm / SEPTTR 3DC disease control rating, HV activity at 100 ppm: high volume application
[2] = test system: Puccinia triticina; assay: Wheat brown rust (PUCCRT) disease control on wheat seedlings; format: in vivo; set-up: key to PUCCRT 3DC, HV activity at 100 ppm (% control rating) / PUCCRT disease control, 3DC / PUCCRT 1DP disease control rating, HV activity / PUCCRT 3DC disease control rating, HV activity / PUCCRT 3DC, LV activity at 125.1 g/H (% Control rating) / PUCCRT 1DP, LV activity at 125.1 g/H (% Control rating) / PUCCRT 3DC disease control rating, LV activity at 125.1 g/H / PUCCRT 1DP disease control rating, LV activity at 125.1 g/H / PUCCRT 3DC disease control rating, HV activity at 100 ppm / PUCCRT 1DP disease control rating, HV activity at 100 ppm / HV activity at 100 ppm PUCCRT 3DC (disease control rating) / LV activity at 125.1 g/H PUCCRT 1DP (disease control rating) / LV activity at 125.1 g/H PUCCRT 3DC (disease control rating): A: > 80; B: ≤ 80; C: Not Tested; D: No Activity Observed in the Reported Assay; conditions: for PUCCRT 1DP disease control rating, LV activity at 125.1 g/H / PUCCRT 3DC disease control rating, LV activity at 125.1 g/H / LV activity at 125.1 g/H PUCCRT 1DP (disease control rating) / LV activity at 125.1 g/H PUCCRT 3DC (disease control rating): low volume application; for PUCCRT 1DP disease control rating, LV activity at 125.1 g/H / PUCCRT 1DP disease control rating, HV activity at 100 ppm: 1 day protectant; for PUCCRT 3DC disease control rating, LV activity at 125.1 g/H / PUCCRT 3DC disease control rating, HV activity at 100 ppm: 3 day curative; for LV activity at 125.1 g/H PUCCRT 1DP (disease control rating) / PUCCRT 1DP disease control rating, HV activity: 1 Day Protectant; for LV activity at 125.1 g/H PUCCRT 1DP (disease control rating) / LV activity at 125.1 g/H PUCCRT 3DC (disease control rating) / PUCCRT 1DP disease control rating, HV activity / PUCCRT 3DC disease control rating, HV activity: wheat brown rust; for LV activity at 125.1 g/H PUCCRT 3DC (disease control rating) / PUCCRT 3DC disease control rating, HV activity: 3 Day Curative; for PUCCRT 1DP disease control rating, HV activity / PUCCRT 3DC disease control rating, HV activity: HV application at 100 ppm; for PUCCRT 1DP disease control rating, HV activity at 100 ppm / PUCCRT 3DC disease control rating, HV activity at 100 ppm: high volume application

SMILES | SEPTTR 1DP disease control rating, LV activity at 125.1 g/H [1] | SEPTTR 3DC disease control rating, LV activity at 125.1 g/H [1] | PUCCRT 1DP disease control rating, LV activity at 125.1 g/H [2] | PUCCRT 3DC disease control rating, LV activity at 125.1 g/H [2] | SEPTTR 1DP disease control rating, HV activity [1] | SEPTTR 3DC disease control rating, HV activity [1] | PUCCRT 1DP disease control rating, HV activity [2] | PUCCRT 3DC disease control rating, HV activity [2] | also measured
CCC(CC)C(Oc1ccc(Cl)cc1)C(C)OC(=O)C(CC(C)C)NC(=O)c1nccc(OC)c1OC(C)=O (stereo not shown) [Cmpd 686] | D | B (≤ 80) | D | D | – | – | – | – | –
COc1ccnc(C(=O)N[C@@H](C)C(=O)O[C@@H](C)[C@@H](Oc2ccccc2)c2cccnc2)c1OC(C)=O [Cmpd 849] | D | B (≤ 80) | D | B (≤ 80) | – | – | – | – | –
CCOc1ccnc(C(=O)NC(C)C(=O)OC(C)C(CC(C)C)Oc2ccc(C)cc2Cl)c1OC(C)=O (stereo not shown) [Cmpd 1098] | – | – | – | – | – | – | – | – | LV activity at 125.1 g/H SEPTTR 1DP (disease control rating) [1]: D; LV activity at 125.1 g/H SEPTTR 3DC (disease control rating) [1]: D; LV activity at 125.1 g/H PUCCRT 1DP (disease control rating) [2]: D; LV activity at 125.1 g/H PUCCRT 3DC (disease control rating) [2]: B (≤ 80)
CCC(CC)C(Oc1cc(F)cc(Cl)c1)C(C)OC(=O)C(CC(C)C)NC(=O)c1nccc(OC)c1O (stereo not shown) [Cmpd 429] | – | – | – | – | B (≤ 80) | D | B (≤ 80) | D | –
COc1ccnc(C(=O)NC(C)C(=O)OC(C)C(Oc2ccccc2)c2cccs2)c1O (stereo not shown) [Cmpd 436] | – | – | – | – | A (> 80) | B (≤ 80) | B (≤ 80) | B (≤ 80) | –
COc1cccc(O[C@H](C2CCCC2)[C@H](C)OC(=O)[C@H](C)NC(=O)c2nccc(OC)c2O)c1 [Cmpd 847] | – | – | – | – | – | – | – | – | SEPTTR 1DP disease control rating, HV activity at 100 ppm [1]: B (≤ 80); SEPTTR 3DC disease control rating, HV activity at 100 ppm [1]: A (> 80); PUCCRT 1DP disease control rating, HV activity at 100 ppm [2]: A (> 80); PUCCRT 3DC disease control rating, HV activity at 100 ppm [2]: A (> 80)
COc1ccnc(C(=O)N[C@@H](C)C(=O)O[C@@H](C)[C@H](Oc2ccc(C)cc2Cl)C2CCCC2)c1O [Cmpd 843, (S)-(1R,2S)-1-(2-chloro-4-methylphenoxy)-1-cyclopentylpropan-2-yl-2-(3-hydroxy-4-methoxypicolinamido)propanoate] | – | – | – | – | – | – | – | – | SEPTTR 1DP disease control rating, HV activity at 100 ppm [1]: D; SEPTTR 3DC disease control rating, HV activity at 100 ppm [1]: B (≤ 80); PUCCRT 1DP disease control rating, HV activity at 100 ppm [2]: D; PUCCRT 3DC disease control rating, HV activity at 100 ppm [2]: D
COc1ccnc(C(=O)NC(C)C(=O)OC(C)C(Oc2cccc(C(F)(F)F)c2)C(C)C)c1O (stereo not shown) [Cmpd 433] | – | – | – | – | D | D | A (> 80) | A (> 80) | –
C=CC[C@@H](OCC1CC1)[C@H](C)OC(=O)[C@H](C)NC(=O)c1nccc(OC)c1OCOC(C)=O [Cmpd 1076] | – | – | – | – | – | – | – | – | LV activity at 125.1 g/H SEPTTR 1DP (disease control rating) [1]: D; LV activity at 125.1 g/H SEPTTR 3DC (disease control rating) [1]: D; LV activity at 125.1 g/H PUCCRT 1DP (disease control rating) [2]: B (≤ 80); LV activity at 125.1 g/H PUCCRT 3DC (disease control rating) [2]: B (≤ 80)
COc1ccnc(C(=O)N[C@@H](C)C(=O)O[C@@H](C)[C@H](OC)c2ccccc2)c1OC(C)=O [Cmpd 887] | D | A (> 80) | D | A (> 80) | – | – | – | – | –
